From article PMC12520178, “Turn-engineering tunes the conformational rigidity of β-hairpin AMPs in achieving membrane selectivity and killing drug-resistant ESKAPE pathogens” (Chemical Science, 2025) come the findings set out here.

In brackets after ≈: the same amount, converted by molar mass. Where a SMILES comes first, the peptide text is derived from it. [ ]: non-standard residue; d: D form. NMeR = CN[C@@H](CCCNC(=N)N)C(=O)O; dNMeR = CN[C@H](CCCNC(=N)N)C(=O)O Some results are limits rather than exact numbers.

In data set [1] the test system is Klebsiella pneumoniae. Format: cell-based.
Data set [2] relates to Escherichia coli. The class given is cell-based.
Data set [3] has as its system Staphylococcus aureus. Kind of data set: microbe, parasite or virus in culture. Format: cell-based.
The subject of data set [4] is human red blood cells. As to conditions: red cells of human.
In data set [5] the test system is Pseudomonas aeruginosa. Format: cell-based.
The subject of data set [6] is Acinetobacter baumannii. The class given is cell-based.

What is called MIC90 is the lowest concentration that inhibits either 90% of growth or 90% of the strains tested, depending on the study. A high value points to lower susceptibility. For the compound `CC[C@H](C)[C@H](NC(=O)CNC(=O)[C@H](CCCNC(=N)N)NC(=O)[C@H](Cc1ccc(O)cc1)NC(=O)[C@@H](NC(=O)[C@@H](NC(=O)[C@H](CCCNC(=N)N)NC(=O)[C@H](Cc1ccccc1)NC(=O)[C@@H](NC(=O)[C@H](Cc1c[nH]c2ccccc12)NC(=O)[C@@H](N)CCCCN)[C@@H](C)O)C(C)C)[C@@H](C)O)C(=O)N[C@H](C(=O)N[C@@H](Cc1ccc(O)cc1)C(=O)N[C@@H](CCCNC(=N)N)C(=O)N[C@@H](CCCNC(=N)N)C(=O)N[C@H](C(=O)N[C@@H](CCCNC(=N)N)C(N)=O)[C@@H](C)O)[C@@H](C)O` [4c] (H-KWTFRVTYRGITYRRTR-NH2), in data set [1], the “MIC (μM) kp” value stood at 6.3 µM (≈ 14.2 µg/mL). Besides, in data set [2], the “MIC90” value worked out at 2.2 µM (≈ 4.97 µg/mL). In addition, in data set [3], the “MIC (μM) sa” value came to 12.5 µM (≈ 28.2 µg/mL). In data set [4], the “MHC10 (μM), minimum hemolytic concentration” value (“MHC10 (μM)” for short) came out at 100 µM. In addition, the “MIC (μM) pa” value in data set [5] amounted to 6.3 µM (≈ 14.2 µg/mL). In addition, in data set [6], the “MIC (μM) ab” value came out at 1.6 µM (≈ 3.62 µg/mL).

On to `CC[C@H](C)[C@H](NC(=O)[C@H](CCCNC(=N)N)N(C)C(=O)[C@@H](C)NC(=O)[C@H](Cc1ccc(O)cc1)NC(=O)[C@@H](NC(=O)[C@@H](NC(=O)[C@H](CCCNC(=N)N)NC(=O)[C@H](Cc1ccccc1)NC(=O)[C@@H](NC(=O)[C@H](Cc1c[nH]c2ccccc12)NC(=O)[C@@H](N)CCCCN)[C@@H](C)O)C(C)C)[C@@H](C)O)C(=O)N[C@H](C(=O)N[C@@H](Cc1ccc(O)cc1)C(=O)N[C@@H](CCCNC(=N)N)C(=O)N[C@@H](CCCNC(=N)N)C(=O)N[C@H](C(=O)N[C@@H](CCCNC(=N)N)C(N)=O)[C@@H](C)O)[C@@H](C)O` [4d] (H-KWTFRVTY[dA][NMeR]ITYRRTR-NH2), for which the “MIC (μM) kp” value in data set [1] turned out to be 1.6 µM (≈ 3.66 µg/mL). Besides, in data set [2], the “MIC90” value was determined as 0.4 µM (≈ 0.915 µg/mL). Besides, in data set [3], the “MIC (μM) sa” value was found to be 3.1 µM (≈ 7.09 µg/mL). Moreover, the “MHC10 (μM)” value in data set [4] turned out to be 100 µM. In data set [5], the “MIC (μM) pa” value came out at 1.6 µM (≈ 3.66 µg/mL). For the same compound, the “MIC (μM) ab” value in data set [6] amounted to 0.8 µM (≈ 1.83 µg/mL).

In the case of `CC(C)C[C@@H](NC(=O)[C@@H](CCCNC(=N)N)NC(=O)CNC(=O)CNC(=O)[C@H](N)CCCNC(=N)N)C(=O)N[C@@H](C(=O)N[C@H](Cc1ccc(O)cc1)C(=O)N[C@@H](C(=O)N[C@H](CCCNC(=N)N)C(=O)N[C@@H](C)C(=O)N(C)[C@H](CCCNC(=N)N)C(=O)N[C@H](Cc1ccccc1)C(=O)N[C@@H](C(=O)N[C@@H](C(=O)N[C@@H](C(=O)N[C@@H](C(=O)NCC(=O)N[C@H](CCCNC(=N)N)C(N)=O)C(C)C)[C@H](C)O)C(C)C)[C@H](C)O)[C@H](C)O)[C@H](C)O` [2f] (H-[dR]GG[dR][dL][dT][dY][dT][dR]A[dNMeR][dF][dT][dV][dT][dV]G[dR]-NH2), the “MIC (μM) kp” value in data set [1] came out at 3.1 µM (≈ 6.45 µg/mL). Moreover, in data set [2], the “MIC90” value was found to be 0.4 µM (≈ 0.832 µg/mL) and the “MIC (μM) ec” value is 0.4 µM (≈ 0.832 µg/mL). Besides, the “MIC (μM) sa” value in data set [3] was 2.3 µM (≈ 4.79 µg/mL). For the same compound, in data set [4], the “MHC10 (μM)” value was more than 200 µM. In addition, in data set [5], the “MIC (μM) pa” value worked out at 1.6 µM (≈ 3.33 µg/mL). Also, the “MIC (μM) ab” value in data set [6] came out at 2.3 µM (≈ 4.79 µg/mL).

`CC(C)[C@@H](NC(=O)[C@@H](CCCNC(=N)N)NC(=O)[C@@H](Cc1ccccc1)NC(=O)[C@H](NC(=O)[C@@H](Cc1c[nH]c2ccccc12)NC(=O)[C@@H](CCCNC(=N)N)NC(=O)[C@H](N)CCCNC(=N)N)[C@H](C)O)C(=O)N[C@@H](C(=O)N[C@H](Cc1ccc(O)cc1)C(=O)N[C@@H](C)C(=O)N(C)[C@H](CCCNC(=N)N)C(=O)N[C@H](Cc1ccccc1)C(=O)N[C@@H](C(=O)N[C@H](Cc1ccc(O)cc1)C(=O)N[C@H](CCCNC(=N)N)C(=O)N[C@H](CCCCN)C(=O)N[C@@H](C(=O)N[C@H](CCCNC(=N)N)C(N)=O)[C@H](C)O)[C@H](C)O)[C@H](C)O` [3f] (H-[dR][dR][dW][dT][dF][dR][dV][dT][dY]A[dNMeR][dF][dT][dY][dR][dK][dT][dR]-NH2): the “MIC (μM) kp” value in data set [1] was determined as 3.1 µM (≈ 7.68 µg/mL). For the same compound, in data set [2], the “MIC90” value was 0.4 µM (≈ 0.991 µg/mL) and the “MIC (μM) ec” value is 0.4 µM (≈ 0.991 µg/mL). Also, in data set [3], the “MIC (μM) sa” value is 1.2 µM (≈ 2.97 µg/mL). The “MHC10 (μM)” value in data set [4] came to 100 µM. The “MIC (μM) pa” value in data set [5] was found to be 1.6 µM (≈ 3.96 µg/mL). Moreover, the “MIC (μM) ab” value in data set [6] was 1.6 µM (≈ 3.96 µg/mL).
